Laboratory results taken from patent US8916516B2, “Treatment of fungal and/or protist infections” (AI2 Limited, priority 2005, dated 2014).
Where two headings read alike, the source gives them in different places.

Columns and labels:
Format in all cases: cell-based
[1] = system: Aspergillus niger (clinical isolate); assay: microbe, parasite or virus in culture
Procedure: (§1) Four compounds were supplied as an aqueous solution, 400 μM. Serial dilutions of each test peptide were prepared in addition to a control, which was a conventional antifungal drug, Amphoteracin B. Amphteracin B is obtained from Invitrogen or Melford laboratories.
(§2) Initial testing of the peptides was carried out against the following organisms: • 1) Aspergillus fumigatus AF293 (culture collection strain NCPF7367) • 2) Candida albicans 6862 (clinical isolate) • 3) Fusarium spp 5889 (clinical isolate) • 4) Fusarium spp 6507 (clinical isolate) • 5) Aspergillus terreus (clinical isolate) • 6) Aspergillus niger (clinical isolate) • 7) Staphylococcus aureus (Oxford strain, which is a standard reference strain used in MIC testing)
(§3) The bacterium S. aureus was tested with each of the peptides as a control. A suspension of each organism in an appropriate growth medium was added to the, dilutions of the peptides in order to give concentration ranges of 40 μM to 0.04 μM for each of the peptides, and 64-0.025 μg/ml for amphotericin B. Fungal strains were tested in RPMI media. RPMI is standard Roswell Park Memorial Institute medium (Morton, H. C., (1970) A survey of Commercially Available Tissue Culture Media. In Vitro 6: 89-108).
(§4) Candida and S. aureus plates were read after 24 hrs incubation and the Aspergillus and Fusarium strains read after 48 hrs. The MIC was taken as the lowest drug or compound concentration that caused >80% reduction in growth compared with a drug free control.

[2] = system: Aspergillus terreus (clinical isolate); assay: microbe, parasite or virus in culture
Procedure: as §1, §2, §3, §4

[3] = system: Fusarium spp 5889 (clinical isolate); assay: Antifungal MIC broth dilution (Example 1); conditions: RPMI, 48 hrs, >80% reduction
Procedure: as §1, §2, §3
(§5) The final inoculum for S. aureus was 5×10^4 cfu/ml. The final inoculum for C. albicans was 2×10^3 cfu/ml. The final inoculum for Aspergillus fumigatus and for Fusarium spp was 2×10^4 cfu/ml.
as §4

[4] = system: Fusarium spp 6507 (clinical isolate); assay: Antifungal MIC broth dilution (Example 1); conditions: RPMI, 48 hrs, >80% reduction
Procedure: as §1, §2, §3, §5, §4

Fusarium solani 4 (FS4) = assay: Antifungal MIC (Example 4); set-up: MIC values (>80% reduction) FS4, positive control: unit not given beside the values; conditions: for MIC values (>80% reduction) FS4: Fusarium solani 4, peptides, Tables 4 and 5
Procedure: (§6) The inventor expanded the work conducted in Example 1 by testing an expanded library of peptides derived from either apolipoprotein B or apolipoprotein E in order to further evaluate polypeptides in accordance with the invention. These experiments were conducted using the following fungal species:
(§7) FS1-FS4 were obtained from Bristol PHLS (British Public Health Laboratory Service UK). Aspergillus fumigatus 293 is publicly available as culture collection strain NCPF7367 (National Collection of Pathogenic Fungi Public Health Laboratory, Mycological Reference Laboratory Myrtle Road, Kingsdown, Bristol BS2 8EL) The Candida albicans was a clinical isolate obtained by standard means.
(§8) The methods used to determine, the IC50 values for each peptide were as described in the Example 1.

Fusarium solani 2 (FS2) = assay: Antifungal MIC (Example 4); set-up: MIC values (>80% reduction) FS2, positive control: unit not given beside the values; conditions: for MIC values (>80% reduction) FS2: Fusarium solani 2, peptides, Tables 4 and 5
Procedure: as §6, §7, §8

[5] = system: Staphylococcus aureus (Oxford strain); assay: microbe, parasite or virus in culture
Procedure: as §1, §2, §3
S. aureus was tested in Isosensitest broth. Isosentitest agar is a standard MIC medium used by many hospital labs for bacterial MICs using a disc diffusion method. The reference standard is Oxoid CM471. Also available in broth form, CM473, for the bacterial broth dilution assay method. NCCLS ref M7-A4. Both the NCCLS methods quoted are the standard methods.
as §5, §4

[6] = system: Candida albicans 6862 (clinical isolate); assay: microbe, parasite or virus in culture
Procedure: as §1, §2, §3, §5, §4

Fusarium solani 3 (FS3) = assay: Antifungal MIC (Example 4); set-up: MIC values (>80% reduction) FS3, positive control: unit not given beside the values; conditions: for MIC values (>80% reduction) FS3: Fusarium solani 3, peptides, Tables 4 and 5
Procedure: as §6, §7, §8

[7] = system: Aspergillus fumigatus AF293 (NCPF7367); assay: microbe, parasite or virus in culture; set-up: MIC values (>80% reduction) AF, positive control: unit not given beside the values; conditions: for MIC values (>80% reduction) AF: Aspergillus fumigatus 293, peptides, Tables 4 and 5
Procedure: as §1, §2, §3, §5, §4
Aspergillus fumigatus 293 (AF); and
as §7, with “means. […]” for “means.”

Fusarium solani 1 (FS1) = assay: Antifungal MIC (Example 4); set-up: MIC values (>80% reduction) FS1, positive control: unit not given beside the values; conditions: for MIC values (>80% reduction) FS1: Fusarium solani 1, peptides, Tables 4 and 5
Procedure: as §6, §7, §8

[8] = system: Acanthamoeba polyphaga (trophozoites), Ros strain; assay: Microtitre plate assay against Acanthamoeba trophozoites (Example 2); conditions: lowest concentration killing the trophozoite challenge
From the text: The test compounds were screened against the trophozoites of clinical isolates of Acanthamoeba spp. using a microtitre plate assay procedure. The organisms were Acanthamoeba polyphaga. (see for details on the strain and methodology used: Hughes, R. & Kilvington, S. (2001). A comparison of hydrogen peroxide contact lens disinfection systems and solutions against Acanthamoeba polyphaga. Antimicrob. Agents Chemother. 45: 2038-2043.) Acanthamoeba polyphaga Ros strain was used throughout the study. The strain was originally isolated from an unpublished case of acanthamoeba keratitis in the United Kingdom in 1994.
Use of the microliter plate assay enabled the determination of the minimum amoebacidal trophozoite concentration (MATC), which is the minimum amoebacidal trophozoite concentration (μg/ml)=lowest concentration killing the trophozoite challenge […] and also the minimum inhibitory trophozoite concentration (MITC), which is the minimum inhibitory trophozoite concentration (μg/ml)=lowest concentration stopping the trophozoites from dividing or killing about 50% of population. The values may then be used to select drug concentrations for use in time-kill experiments to study the kinetics of Acanthamoeba killing.

fungi = conditions: overall statement on the fungi tested
Procedure: as §1, §2
The bacterium S. aureus was tested with each of the peptides as a control. […] RPMI is standard Roswell Park Memorial Institute medium (Morton, H. C., (1970) A survey of Commercially Available Tissue Culture Media. In Vitro 6: 89-108).
as §4, §8

[9] = system: Candida albicans (CA), clinical isolate; assay: Antifungal MIC (Example 4); conditions: peptides, Tables 4 and 5
Procedure: as §6, §7, §8

## C[C@@H]1[C@H](O)[C@@H](C)/C=C/C=C/C=C/C=C/C=C/C=C/C=C/[C@H](O[C@@H]2O[C@H](C)[C@@H](O)[C@H](N)[C@@H]2O)C[C@@H]2O[C@](O)(C[C@@H](O)C[C@@H](O)[C@H](O)CC[C@@H](O)C[C@@H](O)CC(=O)O[C@H]1C)C[C@H](O)[C@H]2C(=O)O [Amphotericin B, reference compound]
[1]; Aspergillus niger, RPMI, >80% reduction, read-out: MIC
  MIC: 0.15 µg/mL
[2]; Aspergillus terreus, RPMI, >80% reduction, read-out: MIC
  MIC: 1.25 µg/mL
[3]; read-out: MIC
  MIC: 2.5 µg/mL
[4]; read-out: MIC
  MIC: 1.25 µg/mL
Fusarium solani 4 (FS4); Amphotericin B, fourth of five values, unit not given
  MIC values (>80% reduction) FS4, positive control: 0.15
Fusarium solani 2 (FS2); Amphotericin B, second of five values, unit not given
  MIC values (>80% reduction) FS2, positive control: 1.25
[5]; Staphylococcus aureus, Staph aureus (Oxford), Isosensitest broth, 24 hrs, read-out: MIC
  MIC: > 40 µg/mL
[6]; Candida albicans, C. albicans 6862, RPMI, read after 24 hrs, >80% reduction in growth, read-out: MIC
  MIC: 0.6 µg/mL
Fusarium solani 3 (FS3); Amphotericin B, third of five values, unit not given
  MIC values (>80% reduction) FS3, positive control: 0.3
[7]; Amphotericin B, fifth of five values, unit not given
  MIC values (>80% reduction) AF, positive control: 0.04
[7]; NCPF7367, Aspergillus fumigatus, RPMI, read after 48 hrs, >80% reduction, read-out: MIC
  MIC: 0.6 µg/mL
Fusarium solani 1 (FS1); Amphotericin B, first of five values, unit not given
  MIC values (>80% reduction) FS1, positive control: 0.15

## Ac-WRKWRKRLLLRKLRKRLL-NH2 [MU_114]
[1]; clinical isolate
  MIC: 20 µM
[2]
  MIC: >40 µM
[3]
  MIC: 5 µM
[4]
  MIC: 40 µM
[5]; Oxford strain, 24 h
  MIC: 40 µM
[6]; 6862 (clinical isolate, 24 h)
  MIC: >40 µM
[8]; listed as MU 114
  MATC = minimum amoebacidal trophozoite concentration: 98.7 µM
[8]; listed as MU114
  MATC = minimum amoebacidal trophozoite concentration: 93.8 µM
[7]; AF293 (NCPF7367, 48 h)
  MIC: >40 µM
fungi
  antifungal activity (in words): showed antifungal activity

## FRKFRKRFFFRKFRKRFF (Artficial polypeptide designated MU7) [MU_7]
Fusarium solani 4 (FS4)
  MIC values (>80% reduction) FS4: 20 µM
Fusarium solani 2 (FS2)
  MIC values (>80% reduction) FS2: 2.5 µM
[9]
  MIC values (>80% reduction) CA: >40 µM
Fusarium solani 3 (FS3)
  MIC values (>80% reduction) FS3: 5 µM
[8]
  MATC = minimum amoebacidal trophozoite concentration: 93.1 µM
[7]
  MIC values (>80% reduction) AF: >40 µM
fungi
  antifungal activity (in words): particularly effective antifungal peptides
Fusarium solani 1 (FS1)
  MIC values (>80% reduction) FS1: 5 µM

## RRKRRKRRRRRKRRKRRR (Artificial polypeptide designated MU 16) [MU_16]
Fusarium solani 4 (FS4)
  MIC values (>80% reduction) FS4: 2.5 µM
Fusarium solani 2 (FS2)
  MIC values (>80% reduction) FS2: 1.25 µM
[9]
  MIC values (>80% reduction) CA: 10 µM
Fusarium solani 3 (FS3)
  MIC values (>80% reduction) FS3: 1.25 µM
[7]
  MIC values (>80% reduction) AF: 40 µM
fungi
  antifungal activity (in words): particularly effective antifungal peptides
Fusarium solani 1 (FS1)
  MIC values (>80% reduction) FS1: 1.25 µM

## RRWRKRWRKWRWRKRWRK (Artificial polypeptide designated MU 28) [MU_28, 42]
Fusarium solani 4 (FS4)
  MIC values (>80% reduction) FS4: 2.5 µM
Fusarium solani 2 (FS2)
  MIC values (>80% reduction) FS2: 0.6 µM
[9]
  MIC values (>80% reduction) CA: >40 µM
Fusarium solani 3 (FS3)
  MIC values (>80% reduction) FS3: 1.25 µM
[7]
  MIC values (>80% reduction) AF: 10 µM
fungi
  antifungal activity (in words): good antifungal activity
Fusarium solani 1 (FS1)
  MIC values (>80% reduction) FS1: 0.6 µM

## WRKWRKRWW (Artificial polypeptide designated MU 45) [MU_45, 87; monomer on which MU 4 is based]
Fusarium solani 4 (FS4)
  MIC values (>80% reduction) FS4: >40 µM
Fusarium solani 2 (FS2)
  MIC values (>80% reduction) FS2: 40 µM
[9]
  MIC values (>80% reduction) CA: >40 µM
Fusarium solani 3 (FS3)
  MIC values (>80% reduction) FS3: 40 µM
[7]
  MIC values (>80% reduction) AF: >40 µM
fungi
  antifungal activity (in words): ineffective
Fusarium solani 1 (FS1)
  MIC values (>80% reduction) FS1: 40 µM

## WRWKKKWRKWRWKKKWRK (Artificial polypeptide designated MU 26) [MU_26, 89]
Fusarium solani 4 (FS4)
  MIC values (>80% reduction) FS4: 10 µM
Fusarium solani 2 (FS2)
  MIC values (>80% reduction) FS2: 5 µM
[9]
  MIC values (>80% reduction) CA: >40 µM
Fusarium solani 3 (FS3)
  MIC values (>80% reduction) FS3: 5 µM
[7]
  MIC values (>80% reduction) AF: >40 µM
fungi
  antifungal activity (in words): reduced activity
Fusarium solani 1 (FS1)
  MIC values (>80% reduction) FS1: 5 µM

## WRWRKRWRKWRWRKRWRK (Artificial polypeptide designated MU 27) [MU_27]
Fusarium solani 4 (FS4)
  MIC values (>80% reduction) FS4: 1.25 µM
Fusarium solani 2 (FS2)
  MIC values (>80% reduction) FS2: 0.6 µM
[9]
  MIC values (>80% reduction) CA: 20 µM
Fusarium solani 3 (FS3)
  MIC values (>80% reduction) FS3: 0.6 µM
[7]
  MIC values (>80% reduction) AF: 5 µM
fungi
  antifungal activity (in words): good antifungal activity
Fusarium solani 1 (FS1)
  MIC values (>80% reduction) FS1: 0.6 µM

## WRWRRRWRKWRWRRRWRK (Artificial polypeptide designated MU 25) [MU_25, 88]
Fusarium solani 4 (FS4)
  MIC values (>80% reduction) FS4: 20 µM
Fusarium solani 2 (FS2)
  MIC values (>80% reduction) FS2: 5 µM
[9]
  MIC values (>80% reduction) CA: >40 µM
Fusarium solani 3 (FS3)
  MIC values (>80% reduction) FS3: 10 µM
[7]
  MIC values (>80% reduction) AF: 10 µM
fungi
  antifungal activity (in words): reduced activity
Fusarium solani 1 (FS1)
  MIC values (>80% reduction) FS1: 5 µM

## YRKYRKRYYYRKYRKRYY (Artificial polypeptide designated GIN 41 or MU6) [MU_6]
Fusarium solani 4 (FS4)
  MIC values (>80% reduction) FS4: 20 µM
Fusarium solani 2 (FS2)
  MIC values (>80% reduction) FS2: 5 µM
[9]
  MIC values (>80% reduction) CA: >40 µM
Fusarium solani 3 (FS3)
  MIC values (>80% reduction) FS3: 5 µM
[7]
  MIC values (>80% reduction) AF: >40 µM
fungi
  antifungal activity (in words): particularly effective antifungal peptides
Fusarium solani 1 (FS1)
  MIC values (>80% reduction) FS1: 10 µM
